Data taken from US20230363383A1, “COMBINATIONS OF CHLOROACETANILIDE HERBICIDES WITH SAFENERS” (UPL DO BRASIL INDUSTRIA E COMERCIO DE INSUMOS AGROPECUARIOS …, priority 2020, published 2023).
Read-outs that look alike come from different tables or passages of the source.

How the values were obtained:
Format in all cases: in vivo
wheat crop [1] = settings: seed treatment, average of 4 replications
Text: (§1) Mode of application for herbicides was spray and they were applied to soil after sowing of untreated seeds or seeds treated with safeners.
as §1

Lolium multiflorum = experiment: % weed control of Lolium multiflorum, Propisochlor alone or with safener sprayed to soil; parameters: concentration or dose not given beside the values; settings: spray to soil, average of 4 replications; for % Weed Control 7 DAA: 7 days after administration; for % Weed Control 14 DAA: 14 days after administration; for % Weed Control 21 DAA: 21 days after administration; for % Weed Control 28 DAA: 28 days after administration; for % Weed Control 35 DAA: 35 days after administration
Procedure: (§2) Experiments were carried out to evaluate the phytotoxicity, effect on plant height and effect on number of plants standing after treatments with combinations of one or more Chloroacetanilide herbicides with one or more safeners.
Below table gives summary of the formulation details and application details of Propisochlor and Mefenpyr-diethyl, Isoxadifen-ethyl and Cloquintocet-mexyl that were used in combination with Propisochlor for treatments. Application method was spray and applications were made to soil.
Below table gives summary of the formulation details and application details of Propisochlor and Dichlormid, Fenclorim, Benoxacor, Flurazole and Fluxofenim that were used in combination with Propisochlor for treatments. Application method was spray and applications were made to soil.
Below table gives summary of % weed control shown by untreated check, Propisochlor alone and combination of Propisochlor with Mefenpyr-diethyl, Isoxadifen-ethyl and Cloquintocet-mexyl at different application rates. % weed control was checked for weed Lolium multiflorum.
Below table gives summary of % weed control shown by untreated check, Propisochlor alone and combination of Propisochlor with Dichlormid, Fenclorim, Benoxacor, Flurazole and Fluxofenim at different application rates. % weed control was checked for weed Lolium multiflorum.

wheat crop [2] = settings: spray to soil; for % Phytotoxicity 7 DAA: 7 days after administration; for % Phytotoxicity 7 DAA / % Phytotoxicity 14 DAA / % Phytotoxicity 21 DAA / % Phytotoxicity 28 DAA / % Phytotoxicity 35 DAA: average of 4 replications; for % Phytotoxicity 14 DAA: 14 days after administration; for % Phytotoxicity 21 DAA: 21 days after administration; for % Phytotoxicity 28 DAA: 28 days after administration; for % Phytotoxicity 35 DAA: 35 days after administration; for Plants Standing: untreated check 8.0 (Table 5) / 8.3 (Table 6)
Procedure: as §2
(§3) Application method was spray and applications were made to soil.
as §3

| SMILES | % Weed Control 7 DAA (Lolium multiflorum) | % Weed Control 14 DAA (Lolium multiflorum) | % Weed Control 21 DAA (Lolium multiflorum) | % Weed Control 28 DAA (Lolium multiflorum) | % Weed Control 35 DAA (Lolium multiflorum) | % Phytotoxicity 7 DAA (wheat crop [2]) | % Phytotoxicity 14 DAA (wheat crop [2]) | % Phytotoxicity 21 DAA (wheat crop [2]) | % Phytotoxicity 28 DAA (wheat crop [2]) | % Phytotoxicity 35 DAA (wheat crop [2]) | Plants Standing (wheat crop [2]) | also measured |
| --- | --- | --- | --- | --- | --- | --- | --- | --- | --- | --- | --- | --- |
| N#Cc1nn(-c2c(Cl)cc(C(F)(F)F)cc2Cl)c(N)c1[S+]([O-])C(F)(F)F (stereo not shown) [Treatment 9b] | – | – | – | – | – | – | – | – | – | – | – | Plant height 15 DAA (wheat crop [1]; Table 12, 15 DAA): 23.3; Standing Plants 15 DAA (wheat crop [1]; Table 12, 15 DAA): 10.8; Plant height 29 DAA (wheat crop [1]; Table 12, 29 DAA): 34.3; Standing Plants 29 DAA (wheat crop [1]; Table 12, 29 DAA): 10.8; % Phytotoxicity 8 DAA (wheat crop [1]; wheat crop, Propisochlor sprayed to soil after sowing, 8 DAA): 0%; % Phytotoxicity 15 DAA (wheat crop [1]; wheat crop, Propisochlor sprayed to soil after sowing, 15 DAA): 0%; % Phytotoxicity 22 DAA (wheat crop [1]; wheat crop, Propisochlor sprayed to soil after sowing, 22 DAA): 0%; % Phytotoxicity 29 DAA (wheat crop [1]; wheat crop, Propisochlor sprayed to soil after sowing, 29 DAA): 0%; % Phytotoxicity 36 DAA (wheat crop [1]; wheat crop, Propisochlor sprayed to soil after sowing, 36 DAA): 0% |
| CCc1cccc(C)c1N(COC(C)C)C(=O)CCl [Treatment 2a] | 100% | 100% | 100% | 100% | 100% | 98.0% | 99.0% | 99.5% | 99.5% | 99.0% | 0.5 | – |
| CCc1cccc(C)c1N(COC(C)C)C(=O)CCl [Treatment 10a] | 100.0% | 100.0% | 100.0% | 99.3% | 99.0% | 99.5% | 100% | 100% | 100% | 100% | 0.0 | – |
| N#Cc1nn(-c2c(Cl)cc(C(F)(F)F)cc2Cl)c(N)c1[S+]([O-])C(F)(F)F (stereo not shown) [Treatment 1b] | – | – | – | – | – | – | – | – | – | – | – | Plant height 15 DAA (wheat crop [1]; Table 11, wheat crop, 15 DAA): 10.8; Standing Plants 15 DAA (wheat crop [1]; Table 11, wheat crop, 15 DAA): 22.5; Plant height 29 DAA (wheat crop [1]; Table 11, wheat crop, 29 DAA): 10.8; Standing Plants 29 DAA (wheat crop [1]; Table 11, wheat crop, 29 DAA): 33.8; % Phytotoxicity 7 DAA (wheat crop [1]; wheat crop, Propisochlor sprayed to soil after sowing, 7 DAA): 0%; % Phytotoxicity 14 DAA (wheat crop [1]; wheat crop, Propisochlor sprayed to soil after sowing, 14 DAA): 0%; % Phytotoxicity 21 DAA (wheat crop [1]; wheat crop, Propisochlor sprayed to soil after sowing, 21 DAA): 0%; % Phytotoxicity 28 DAA (wheat crop [1]; wheat crop, Propisochlor sprayed to soil after sowing, 28 DAA): 0%; % Phytotoxicity 35 DAA (wheat crop [1]; wheat crop, Propisochlor sprayed to soil after sowing, 35 DAA): 0% |
